# Results as given in patent publication US9261497B2, “Method of treating cancer with modulators of SCFSkp2” (New York University, priority 2012, dated 2016).
# Tests used:
# Skp2-p27 interaction = biological target: T1, Skp2-p27 interaction (Homo sapiens, UniProt P61024+Q13309); experiment: p27 binding to HA-Skp2 (HA-immunoprecipitation); details: for p27 binding to Skp2: 10 μM, HA-Skp2 and Cks1 pretreated before p27-pT187, without ubiquitylation
# T1 construct: made in house; host or cells: cell-free: rabbit reticulocyte lysate (TNT T7 Coupled Reticulocyte Lysate System, Promega) from pcDNA3.1 plasmids
# T1 sequence (Q13309 whole entry): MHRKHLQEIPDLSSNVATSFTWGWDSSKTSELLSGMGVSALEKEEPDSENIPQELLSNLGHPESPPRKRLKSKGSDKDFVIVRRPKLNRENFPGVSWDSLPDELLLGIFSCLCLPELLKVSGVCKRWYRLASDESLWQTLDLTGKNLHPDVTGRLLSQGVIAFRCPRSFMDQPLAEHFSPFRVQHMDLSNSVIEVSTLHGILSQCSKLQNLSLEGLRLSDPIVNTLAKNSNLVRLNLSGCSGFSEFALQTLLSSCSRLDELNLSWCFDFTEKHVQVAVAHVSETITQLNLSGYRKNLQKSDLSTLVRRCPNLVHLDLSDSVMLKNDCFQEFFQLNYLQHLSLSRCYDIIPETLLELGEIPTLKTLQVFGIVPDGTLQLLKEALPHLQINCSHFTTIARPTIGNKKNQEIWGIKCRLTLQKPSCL
# T1 sequence (P61024 whole entry): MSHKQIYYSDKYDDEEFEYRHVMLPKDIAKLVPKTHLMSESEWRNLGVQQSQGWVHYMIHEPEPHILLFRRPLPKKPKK
# T1 sequence (P63208 whole entry partner): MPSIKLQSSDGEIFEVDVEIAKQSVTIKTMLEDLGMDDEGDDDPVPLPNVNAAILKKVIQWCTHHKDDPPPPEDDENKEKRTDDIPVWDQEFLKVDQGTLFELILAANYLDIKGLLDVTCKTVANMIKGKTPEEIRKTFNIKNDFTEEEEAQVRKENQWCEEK
# T1 sequence (Q13616 whole entry partner): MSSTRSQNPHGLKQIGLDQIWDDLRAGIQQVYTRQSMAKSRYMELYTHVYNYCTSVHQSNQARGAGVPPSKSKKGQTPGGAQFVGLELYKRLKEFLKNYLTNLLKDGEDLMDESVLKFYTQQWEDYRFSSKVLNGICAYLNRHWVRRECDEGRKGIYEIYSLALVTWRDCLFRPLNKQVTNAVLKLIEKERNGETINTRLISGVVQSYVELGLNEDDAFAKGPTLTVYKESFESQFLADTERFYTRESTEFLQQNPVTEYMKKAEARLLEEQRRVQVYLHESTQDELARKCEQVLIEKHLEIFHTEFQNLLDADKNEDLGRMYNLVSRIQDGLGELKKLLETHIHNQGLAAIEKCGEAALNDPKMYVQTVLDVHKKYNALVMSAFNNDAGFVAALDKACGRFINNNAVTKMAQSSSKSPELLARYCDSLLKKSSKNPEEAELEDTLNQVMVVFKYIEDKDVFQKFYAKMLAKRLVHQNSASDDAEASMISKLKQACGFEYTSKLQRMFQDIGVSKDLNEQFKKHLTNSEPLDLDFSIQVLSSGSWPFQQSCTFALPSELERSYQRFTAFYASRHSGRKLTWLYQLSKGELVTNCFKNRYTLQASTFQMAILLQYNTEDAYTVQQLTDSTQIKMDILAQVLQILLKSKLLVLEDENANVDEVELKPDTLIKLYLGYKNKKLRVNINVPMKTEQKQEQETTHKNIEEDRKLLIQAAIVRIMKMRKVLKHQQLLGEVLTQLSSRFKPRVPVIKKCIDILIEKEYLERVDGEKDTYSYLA
# T1 sequence (P62877 whole entry partner): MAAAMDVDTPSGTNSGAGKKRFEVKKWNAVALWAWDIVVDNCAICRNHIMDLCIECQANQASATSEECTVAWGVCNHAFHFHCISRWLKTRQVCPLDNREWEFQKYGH
# Procedure: (§1) In vitro ubiquitylation assays were incubated with anti-HA affinity matrix (Roche) in IP buffer (50 mM Tris pH 7.6, 150 mM NaCl, 0.1% NP40, and Roche Complete EDTA-free protease tablet) for 16 h at 4° C. Beads were washed 3× with IP buffer and eluted with 2×SDS Sample Buffer (Boston Bioproducts) and 10% Beta-mercaptoethanol. For binding without ubiquitylation, HA-Skp2 IVT (10 μl) and Cks1 IVT (10 μl) were preincubated with anti-HA affinity matrix in IP buffer for 2 hours, with the addition of p27 kinase reaction (10 μl) for another 16 h incubation at 4° C. All reactions were analyzed after SDS/PAGE by western blotting. Where indicated, Skp2 and Cks1 were pretreated with 10 μM inhibitors for 30 minutes. Kinase reactions were performed with p27 IVT (10 μl) and 0.5 μg/ul CyclinE/CDK2 in kinase buffer (50 mM Tris HCL pH 7.5, 10 mM MgCl2, 2 mM ATP, 2.5 μM Okadaic Acid, and 0.6 mM DTT) at 30° C. for 1 h.
# ECC-1 cells = experiment: ECC-1 cytotoxicity (trypan blue exclusion); type: cell-based; details: 10 μM, 48 h
# CyclinE/CDK2 = biological target: T2, CyclinE/CDK2 (Homo sapiens, UniProt P24941); experiment: CyclinE/CDK2 kinase assay (phospho-T187 p27); type: biochemical; details: 50 μM inhibitor
# T2 construct: purchased Sigma-Aldrich
# Procedure: as §1
# Ubc3 = biological target: T3, Ubc3 (Homo sapiens, UniProt P49427); experiment: E2 ubiquitin charging (Ubc3~Ub conjugates); type: biochemical; details: 50 μM inhibitor
# T3 construct: purchased Boston Biochem
# T3 sequence (P49427 1-236): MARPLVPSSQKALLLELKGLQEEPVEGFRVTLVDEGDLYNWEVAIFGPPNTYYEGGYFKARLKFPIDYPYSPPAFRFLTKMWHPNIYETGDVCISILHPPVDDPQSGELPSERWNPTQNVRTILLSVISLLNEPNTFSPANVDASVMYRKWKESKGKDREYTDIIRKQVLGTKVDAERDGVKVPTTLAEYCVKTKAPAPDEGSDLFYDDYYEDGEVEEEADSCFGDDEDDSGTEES
# Procedure: In vitro reconstituted assays were performed as previously described (Dorrello et al., “S6K1- and betaTRCP-mediated Degradation of PDCD4 Promotes Protein Translation and Cell Growth,” Science 314:467-471 (2006), which is hereby incorporated by reference in their entirety) with the exceptions of the use of (1) unlabeled proteins (wild-type and mutant Skp2 and Cks1, p27, Flag-βTrCP, and HA-PDCD4) generated by in vitro transcription-translation (TNT T7 Coupled Reticulocyte Lysate System, Promega); (2) chain elongation with non-methylated ubiquitin; and (3) immunoblotting to detect poly-ubiquitylation. The following reagents were obtained from Boston Biochem: UBE1, His-UbcH3, His-UbcH5c, Ubiquitin, and Ubiquitin Aldehyde. Additional reagents include CDK2/CyclinE1 (Sigma-Aldrich), S6K (Invitrogen), Okadaic acid (Sigma), and DMSO (Sigma-Aldrich). […] Reactions were stopped in nondenaturing 2× Sample Buffer, with the addition of 10% Beta-mercaptoethanol as indicated, and analyzed by Western blotting.
# Q52L-Cks1 mutant = biological target: T4, Q52L-Cks1 mutant (Homo sapiens, UniProt P61024+Q13309, Q52L); experiment: In vitro ubiquitylation assay with Q52L-Cks1 mutant; type: biochemical; details: 50 μM compound
# T4 construct: made in house; host or cells: cell-free: rabbit reticulocyte lysate (TNT T7 Coupled Reticulocyte Lysate System, Promega) from pcDNA3.1 plasmids
# T4 sequence (Q13309 whole entry): as the sequence (Q13309 whole entry) above
# T4 sequence (P61024 whole entry Q52L): as the sequence (P61024 whole entry) above, with Q52L counted along it
# T4 sequence (P63208 whole entry partner): as the sequence (P63208 whole entry partner) above
# T4 sequence (Q13616 whole entry partner): as the sequence (Q13616 whole entry partner) above
# T4 sequence (P62877 whole entry partner): as the sequence (P62877 whole entry partner) above
# Source text: To interrogate the compound-contacting residues on the Skp2-Cks1 interface, mutants of Skp2 and Cks1 were designed based on the in silico dockings. The predicted electrostatic interactions between the positive charge on the NH2 side group in Q52-Cks1 with the COOH-group in C1 and C16 should be lost when mutated to a neutral-charge leucine (FIG. 7B). […] This confirms that the Q52-Cks1 residue is important for only C1 and C16 activity, as predicted by the in silico dockings. […] The Skp2-R294A and the Cks1-R44A/H mutants lacked ubiquitylation activity (FIG. 7C) preventing the interrogation of these residues' contribution to the activity of C2 and C20. […] Thus, the predicted three-dimensional mode of interaction of the compounds with Skp2-Cks1 was validated at a chemical and protein level.
# In vitro reconstituted assays were performed as previously described (Dorrello et al., “S6K1- and betaTRCP-mediated Degradation of PDCD4 Promotes Protein Translation and Cell Growth,” Science 314:467-471 (2006), which is hereby incorporated by reference in their entirety) with the exceptions of the use of (1) unlabeled proteins (wild-type and mutant Skp2 and Cks1, p27, Flag-βTrCP, and HA-PDCD4) generated by in vitro transcription-translation (TNT T7 Coupled Reticulocyte Lysate System, Promega); (2) chain elongation with non-methylated ubiquitin; and (3) immunoblotting to detect poly-ubiquitylation. The following reagents were obtained from Boston Biochem: UBE1, His-UbcH3, His-UbcH5c, Ubiquitin, and Ubiquitin Aldehyde. Additional reagents include CDK2/CyclinE1 (Sigma-Aldrich), S6K (Invitrogen), Okadaic acid (Sigma), and DMSO (Sigma-Aldrich). For ubiquitin charging, UBE1 (100 nM) and His-UbcH3 (10 ng/μl) were incubated with ubiquitin (2.5 μg/μl), ATP (2 mM), and 10 μM […] of inhibitors or Vehicle control for 60 min at 30° C. Reactions were stopped in nondenaturing 2× Sample Buffer, with the addition of 10% Beta-mercaptoethanol as indicated, and analyzed by Western blotting.
# 501 Mel cells = experiment: Cell cycle FACS analysis, 501 Mel; type: cell-based, human; details: shEmpty 501 Mel; 10 μM for 16 hours
# Procedure: Whole cell extracts were prepared and immunoblotted as previously described Dorrello et al., “S6K1- and betaTRCP-mediated Degradation of PDCD4 Promotes Protein Translation and Cell Growth,” Science 314:467-471 (2006), which is hereby incorporated by reference in its entirety. For knockdown of Skp2 or p27, shRNAs were induced with 2 ng/ml doxycycline for 48 hours, with the last 16 hours co-treated with 0.1% Vehicle or 10 μM inhibitors as indicated. For cycloheximide chase, cells were pretreated 16 h with 0.1% Vehicle or 10 μM inhibitors, followed by 20 ng/ml cycloheximide (Sigma) and whole cell extracts collected for each time point. […] Scanning densitometry was performed on immunoblots using Image J software. For cell cycle analysis, cells were treated with 0.1% Vehicle or 10 μM inhibitors for 16 h. 1×10^6 cells were fixed in 70% ethanol for 2 h, treated with 200 μg/ml RNase A (Invitrogen) for 30 minutes, and stained with 20 μg/ml Propidium Iodine (Sigma). All samples were assayed in triplicates. Signal was detected using the Becton Dickson LSRII flow cytometer and cell cycle profiles were analyzed with FloJo.
"Amount of p27 interacting with Skp2 (Skp2-p27 interaction; 50 μM, HA-immunoprecipitates of ubiquitylation assays)",Structure (SMILES),p27 binding to Skp2 (Skp2-p27 interaction),Cell death (ECC-1 cells),CyclinE/CDK2 activity (phospho-T187 p27) (CyclinE/CDK2),E2 charging (Ubc3~Ub) (Ubc3),Inhibition of p27 ubiquitylation with Q52L-Cks1 (Q52L-Cks1 mutant),S phase cells (501 Mel cells),Cytotoxicity (ECC-1 cells)
,O=C(O)COc1ccc(C=C2SC(=O)N(CC(=O)c3ccc(Cl)cc3)C2=O)cc1 [Compound C16],reduce p27 binding to Skp2,77%,not blocked,unaffected,inactive,a decrease in S phase cells,
reduced the amount of p27,O=C(O)COc1ccc(Br)cc1C=C1SC(=S)N(Cc2cccnc2)C1=O [Compound C1],reduce p27 binding to Skp2,,not blocked,unaffected,inactive,a decrease in S phase cells,
,O=C(NN=Cc1cc(Br)cc(Br)c1O)C(=Cc1ccccc1O)NC(=O)c1ccccc1 [Compound C20],reduce p27 binding to Skp2,,not blocked,unaffected,strongly inhibited,a decrease in S phase cells,not cytotoxic
,COC(=O)C1=C(C)N(c2ccc(Br)cc2)C(=O)C1=Cc1ccccc1O [Compound C2],reduce p27 binding to Skp2,,not blocked,unaffected,strongly inhibited,a decrease in S phase cells,not cytotoxic
